Experimental data: ChEMBL document CHEMBL1201862, “PubChem BioAssay data set” (2004)
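Cultured in 96-well plates, cells were exposed to test compound for 48 hours across five concentrations. Here, GI50 denotes the concentration required for 50% inhibition of growth.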 Calls of active or inactive are those of the source. Cut-off read from the data, not from the text of the source: active = GI50 up to about 1.1 µM and inactive = higher.

What was measured:
Experiment in all cases: NCI anticancer screen, dose series, 48 h
OVCAR-8 = test system: OVCAR-8
UO-31 = test system: UO-31
HOP-18 = test system: HOP-18
U-251 = test system: U-251
HCC 2998 = test system: HCC 2998
OVCAR-5 = test system: OVCAR-5
HL-60 = test system: HL-60
SF-268 = test system: SF-268
SN12C = test system: SN12C
NCI-H23 = test system: NCI-H23
KM12 = test system: KM12
OVCAR-3 = test system: OVCAR-3
CCRF-CEM = test system: CCRF-CEM
NCI-H226 = test system: NCI-H226
HOP-92 = test system: HOP-92
DU-145 = test system: DU-145
BT-549 = test system: BT-549
MCF7 = test system: MCF7
T47D = test system: T47D
PC-3 = test system: PC-3

Compound	GI50 (OVCAR-8)	GI50 (UO-31)	GI50 (HOP-18)	GI50 (U-251)	GI50 (HCC 2998)	GI50 (OVCAR-5)	GI50 (HL-60)	GI50 (SF-268)	GI50 (SN12C)	GI50 (NCI-H23)	GI50 (KM12)	GI50 (OVCAR-3)	GI50 (CCRF-CEM)	GI50 (NCI-H226)	GI50 (HOP-92)	GI50 (DU-145)	GI50 (BT-549)	GI50 (MCF7)	GI50 (T47D)	GI50 (PC-3)
CCOC(=O)C1C(c2ccc([N+](=O)[O-])cc2)NC(c2ccc([N+](=O)[O-])cc2)C(C(=O)OC)S1(=O)=O (centres undefined)	> 100 µM (inactive)	> 100 µM (inactive)	> 100 µM (inactive)	> 100 µM (inactive)	> 100 µM (inactive)	> 100 µM (inactive)	> 100 µM (inactive)	> 100 µM (inactive)	> 100 µM (inactive)	> 100 µM (inactive)	> 100 µM (inactive)	> 100 µM (inactive)	> 100 µM (inactive)	> 100 µM (inactive)	–	–	–	–	–	–
COC1OC2COC(C)(C)OC2C(OC(C)=O)C1NC(=O)N(CCCl)N=O (centres undefined)	> 100 µM (inactive)	–	> 100 µM (inactive)	33.7 µM (inactive)	> 100 µM (inactive)	> 100 µM (inactive)	11.2 µM (inactive)	8.65 µM (inactive)	> 100 µM (inactive)	> 100 µM (inactive)	> 100 µM (inactive)	> 100 µM (inactive)	24.3 µM (inactive)	47 µM (inactive)	–	–	–	–	–	–
O=c1c2ccccc2nc(-c2ccccc2)n1NC(=S)Nc1ccc(Cl)cc1	> 100 µM (inactive)	61.5 µM (inactive)	> 100 µM (inactive)	> 100 µM (inactive)	–	> 100 µM (inactive)	56.9 µM (inactive)	> 100 µM (inactive)	> 100 µM (inactive)	53.6 µM (inactive)	85.9 µM (inactive)	–	58.3 µM (inactive)	96.6 µM (inactive)	> 100 µM (inactive)	–	–	–	–	–
COC(=O)/C=C\C(C#N)(C#N)/N=C/c1ccc(Br)cc1	5.47 µM (inactive)	4.36 µM (inactive)	–	13.6 µM (inactive)	16.9 µM (inactive)	14.1 µM (inactive)	0.0389 µM (active)	15.5 µM (inactive)	5.42 µM (inactive)	14.9 µM (inactive)	14.4 µM (inactive)	12 µM (inactive)	1.54 µM (inactive)	6.4 µM (inactive)	1.99 µM (inactive)	12.1 µM (inactive)	11.2 µM (inactive)	3.52 µM (inactive)	3.63 µM (inactive)	13.4 µM (inactive)
CC(=O)NC1C(OCc2ccccc2)OC(COC(=O)CCCCCCCCCCNC(=O)c2cccc3c(=O)c4ccccc4[nH]c23)C(O)C1OC(C)C(=O)NC(C)C(=O)NC(CCC(N)=O)C(N)=O (centres undefined)	94.8 µM (inactive)	> 100 µM (inactive)	59 µM (inactive)	69.5 µM (inactive)	–	> 100 µM (inactive)	> 100 µM (inactive)	> 100 µM (inactive)	> 100 µM (inactive)	46.1 µM (inactive)	49.1 µM (inactive)	43.8 µM (inactive)	–	38.7 µM (inactive)	–	–	–	–	–	–
CC1(C)OC[C@H](COCOP2(=O)Oc3ccc4ccccc4c3-c3c(ccc4ccccc34)O2)O1	25.2 µM (inactive)	18.3 µM (inactive)	–	18 µM (inactive)	16.9 µM (inactive)	17.8 µM (inactive)	17.1 µM (inactive)	16 µM (inactive)	16.4 µM (inactive)	15.6 µM (inactive)	15.5 µM (inactive)	15.3 µM (inactive)	27.6 µM (inactive)	18.7 µM (inactive)	14.6 µM (inactive)	17.6 µM (inactive)	16.6 µM (inactive)	3.48 µM (inactive)	18.3 µM (inactive)	14.2 µM (inactive)
O=C1/C(=C\c2cccs2)Oc2ccccc21	70.8 µM (inactive)	33 µM (inactive)	–	51.6 µM (inactive)	64.6 µM (inactive)	> 100 µM (inactive)	49.8 µM (inactive)	51.1 µM (inactive)	> 100 µM (inactive)	40.6 µM (inactive)	59.4 µM (inactive)	24.9 µM (inactive)	57.7 µM (inactive)	58.1 µM (inactive)	35.2 µM (inactive)	50.9 µM (inactive)	41.2 µM (inactive)	28.9 µM (inactive)	2.99 µM (inactive)	43.2 µM (inactive)
COc1cc(N(C)C)c(OC)cc1C=C1C=CC=C1	> 100 µM (inactive)	> 100 µM (inactive)	–	> 100 µM (inactive)	> 100 µM (inactive)	> 100 µM (inactive)	36.4 µM (inactive)	> 100 µM (inactive)	> 100 µM (inactive)	> 100 µM (inactive)	> 100 µM (inactive)	> 100 µM (inactive)	54.1 µM (inactive)	> 100 µM (inactive)	61.8 µM (inactive)	> 100 µM (inactive)	> 100 µM (inactive)	> 100 µM (inactive)	41.3 µM (inactive)	> 100 µM (inactive)
CCOC(=O)C1(O)C(=O)C2=C3C(=O)OC(C4OC(=O)c5c(c(O)c(O)c(O)c5C31)-c1c(cc(O)c(O)c1O)C(=O)OC1COC(=O)c3cc(O)c(O)c(O)c3-c3c(cc(O)c(O)c3O)C(=O)OC14)[C@@H]2O (some centres undefined)	19.8 µM (inactive)	26.4 µM (inactive)	–	19.2 µM (inactive)	25.7 µM (inactive)	15.9 µM (inactive)	19.1 µM (inactive)	22.4 µM (inactive)	17 µM (inactive)	16.3 µM (inactive)	33.7 µM (inactive)	32.6 µM (inactive)	17.2 µM (inactive)	16.5 µM (inactive)	23 µM (inactive)	31 µM (inactive)	18.8 µM (inactive)	18.7 µM (inactive)	24.8 µM (inactive)	46 µM (inactive)
CCOC(=O)/C(=C\c1ccc(N(CCC#N)CCC#N)cc1)NC(=O)c1cc([N+](=O)[O-])ccc1Cl	> 100 µM (inactive)	69 µM (inactive)	> 100 µM (inactive)	> 100 µM (inactive)	> 100 µM (inactive)	> 100 µM (inactive)	> 100 µM (inactive)	> 100 µM (inactive)	> 100 µM (inactive)	> 100 µM (inactive)	> 100 µM (inactive)	63.4 µM (inactive)	55.1 µM (inactive)	> 100 µM (inactive)	–	–	–	–	–	–
Cc1cccc(CC(Cc2ccc(C)cc2C(=O)O)C(=O)O)c1 (centres undefined)	> 100 µM (inactive)	> 100 µM (inactive)	–	> 100 µM (inactive)	> 100 µM (inactive)	> 100 µM (inactive)	> 100 µM (inactive)	> 100 µM (inactive)	> 100 µM (inactive)	> 100 µM (inactive)	> 100 µM (inactive)	> 100 µM (inactive)	> 100 µM (inactive)	> 100 µM (inactive)	> 100 µM (inactive)	> 100 µM (inactive)	> 100 µM (inactive)	> 100 µM (inactive)	> 100 µM (inactive)	> 100 µM (inactive)
COC(=O)Cc1ccc(Oc2nc3ccccc3nc2-c2cccs2)cc1	36.4 µM (inactive)	> 100 µM (inactive)	–	39.1 µM (inactive)	> 100 µM (inactive)	> 100 µM (inactive)	> 100 µM (inactive)	36 µM (inactive)	> 100 µM (inactive)	> 100 µM (inactive)	> 100 µM (inactive)	> 100 µM (inactive)	> 100 µM (inactive)	35.7 µM (inactive)	24.2 µM (inactive)	> 100 µM (inactive)	57.8 µM (inactive)	> 100 µM (inactive)	> 100 µM (inactive)	> 100 µM (inactive)
